In paper PMC2233835 (The Journal of General Physiology, 2001):

What was measured:
[1] = molecular target: T1, X-α homomeric channels (Bos taurus, UniProt Q00194, A200G/A344S/A378F/A555M/A614G/C169F/D157S/D193E/D538A/D604Q/DEL101-144/DEL91-95/E147F/E148K/E189Q/E196F/E230D/E231L/F201L/F214C/F374V/G160D/G591K/I156V/I181L/I182V/I235R/I530V/I609E/I611V/INS98[…]/K146T/K150R/K151W/K237N/K239I/K346C/K506R/K521Q/K551Q/K564R/K590Q/K596R/K598R/L195F/L199V/L210I/L351F/L583V/M175L/M213T/M592V/M602R/N161D/N165Y/N610S/N613A/P158Q/P173A/Q494R/Q599E/Q97T/R232A/R345F/R369K/R512K/S192D/S205C/S240R/S350C/S371E/S537T/S540G/T162I/T171A/T179I/T217L/T364M/T584A/V153G/V154F/V174S/V208I/V215I/V534A/V535L/Y194N/Y197L/Y541C); assay: Macroscopic current dose–response in inside-out patches from Xenopus oocytes; type: cell-based, chimera of bovine CNG1 and catfish CNG2; conditions: −100 mV, Hill fit of composite dataset, cGMP: only data ≤3 mM
T1 sequence (Q00194 with tags, fused parts or gaps DEL91-95/Q97T/INS98[…]/DEL101-144/K146T/E147F/E148K/K150R/K151W/V153G/V154F/I156V/D157S/P158Q/G160D/N161D/T162I/N165Y/C169F/T171A/P173A/V174S/M175L/T179I/I181L/I182V/E189Q/S192D/D193E/Y194N/L195F/E196F/Y197L/L199V/A200G/F201L/S205C/V208I/L210I/M213T/F214C/V215I/T217L/E230D/E231L/R232A/I235R/K237N/K239I/S240R/A344S/R345F/K346C/S350C/L351F/T364M/R369K/S371E/F374V/A378F/Q494R/K506R/R512K/K521Q/I530V/V534A/V535L/S537T/D538A/S540G/Y541C/K551Q/A555M/K564R/L583V/T584A/K590Q/G591K/M592V/K596R/K598R/Q599E/M602R/D604Q/I609E/N610S/I611V/N613A/A614G): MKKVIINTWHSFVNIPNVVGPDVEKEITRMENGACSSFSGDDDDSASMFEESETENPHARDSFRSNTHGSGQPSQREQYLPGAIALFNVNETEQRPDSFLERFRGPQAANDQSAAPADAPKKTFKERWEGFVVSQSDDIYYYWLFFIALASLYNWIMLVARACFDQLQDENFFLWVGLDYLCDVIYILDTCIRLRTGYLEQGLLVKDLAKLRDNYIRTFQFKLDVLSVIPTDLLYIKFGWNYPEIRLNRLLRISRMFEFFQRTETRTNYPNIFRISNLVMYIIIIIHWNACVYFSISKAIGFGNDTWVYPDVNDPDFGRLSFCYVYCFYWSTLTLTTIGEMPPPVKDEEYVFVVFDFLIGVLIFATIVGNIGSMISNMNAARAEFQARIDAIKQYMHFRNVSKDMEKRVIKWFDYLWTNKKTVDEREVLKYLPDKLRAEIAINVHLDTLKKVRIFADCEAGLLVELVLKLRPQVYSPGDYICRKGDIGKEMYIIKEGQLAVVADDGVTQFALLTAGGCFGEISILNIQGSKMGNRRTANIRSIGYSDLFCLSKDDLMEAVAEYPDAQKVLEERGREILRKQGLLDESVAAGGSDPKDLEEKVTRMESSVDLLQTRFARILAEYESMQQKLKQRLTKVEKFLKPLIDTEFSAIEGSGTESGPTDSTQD

[2] = molecular target: T2, X-αR/βC (Bos taurus, UniProt Q00194, A200G/A344S/A378F/A555M/A612E/C169F/D157S/D193E/D538A/D588Q/D604M/DEL101-144/DEL91-95/E147F/E148K/E189Q/E196F/E230D/E231L/F201L/F214C/F374V/G160D/G591A/G605N/I156V/I181L/I182V/I235R/I530V/I609V/I611A/INS98[…]/K146T/K150R/K151W/K237N/K239I/K346C/K506R/K521Q/K551Q/K564R/K590Q/K598R/L195F/L199V/L210I/L351F/L583V/L593M/L606K/M175L/M213T/M592V/M602L/N161D/N165Y/N613A/P158Q/P173A/Q494R/Q599E/Q97T/R232A/R345F/R369K/R512K/S192D/S205C/S240R/S350C/S371E/S537T/S540G/T162I/T171A/T179I/T217L/T364M/T584A/V153G/V154F/V174S/V208I/V215I/V534A/V535L/Y194N/Y197L/Y541C); assay: as above; type: cell-based, chimera of bovine CNG1, catfish CNG2 and rat CNG5
T2 sequence (Q00194 with tags, fused parts or gaps DEL91-95/Q97T/INS98[…]/DEL101-144/K146T/E147F/E148K/K150R/K151W/V153G/V154F/I156V/D157S/P158Q/G160D/N161D/T162I/N165Y/C169F/T171A/P173A/V174S/M175L/T179I/I181L/I182V/E189Q/S192D/D193E/Y194N/L195F/E196F/Y197L/L199V/A200G/F201L/S205C/V208I/L210I/M213T/F214C/V215I/T217L/E230D/E231L/R232A/I235R/K237N/K239I/S240R/A344S/R345F/K346C/S350C/L351F/T364M/R369K/S371E/F374V/A378F/Q494R/K506R/R512K/K521Q/I530V/V534A/V535L/S537T/D538A/S540G/Y541C/K551Q/A555M/K564R/L583V/T584A/D588Q/K590Q/G591A/M592V/L593M/K598R/Q599E/M602L/D604M/G605N/L606K/I609V/I611A/A612E/N613A): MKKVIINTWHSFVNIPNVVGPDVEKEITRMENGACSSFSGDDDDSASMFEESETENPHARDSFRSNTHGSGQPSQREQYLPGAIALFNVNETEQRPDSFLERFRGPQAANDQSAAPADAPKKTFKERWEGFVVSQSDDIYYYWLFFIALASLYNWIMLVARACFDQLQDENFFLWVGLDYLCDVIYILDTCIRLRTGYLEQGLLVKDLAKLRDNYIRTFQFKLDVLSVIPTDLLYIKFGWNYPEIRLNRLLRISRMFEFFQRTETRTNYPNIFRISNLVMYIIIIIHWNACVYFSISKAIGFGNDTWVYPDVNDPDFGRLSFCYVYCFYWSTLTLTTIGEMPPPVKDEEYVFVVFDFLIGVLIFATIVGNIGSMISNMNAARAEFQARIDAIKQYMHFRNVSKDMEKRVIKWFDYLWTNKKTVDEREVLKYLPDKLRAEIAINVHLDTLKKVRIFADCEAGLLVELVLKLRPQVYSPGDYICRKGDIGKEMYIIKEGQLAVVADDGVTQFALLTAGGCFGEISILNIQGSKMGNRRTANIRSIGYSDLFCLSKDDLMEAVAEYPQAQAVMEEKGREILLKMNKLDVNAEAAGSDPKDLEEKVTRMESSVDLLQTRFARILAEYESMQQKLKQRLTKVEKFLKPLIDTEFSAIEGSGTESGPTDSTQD

[3] = molecular target: T3, X-βR/αC (Bos taurus, UniProt Q00194, A200G/A344S/A378F/A555S/A582V/A614G/C169F/D157S/D193E/D502E/D538A/D577E/D604Q/DEL101-144/DEL91-95/E147F/E148K/E189Q/E196F/E230D/E231L/F201L/F214C/F374V/F533Y/G160D/G591K/I156V/I181L/I182V/I235R/I504V/I530V/I566L/I609E/I611V/INS98[…]/K146T/K150R/K151W/K237N/K239I/K346C/K506R/K518R/K521Q/K554M/K590Q/K596R/K598R/L195F/L199V/L210I/L351F/L548I/M175L/M213T/M580R/M592V/M602R/N161D/N165Y/N610S/N613A/P158Q/P173A/Q599E/Q97T/R232A/R345F/R369K/S192D/S205C/S240R/S350C/S371E/S537G/S540L/S553N/T162I/T171A/T179I/T217L/T364M/T584S/V153G/V154F/V174S/V208I/V215I/V487E/V497T/V534A/Y194N/Y197L); assay: as above; type: cell-based, chimera of bovine CNG1, catfish CNG2 and rat CNG5
T3 sequence (Q00194 with tags, fused parts or gaps DEL91-95/Q97T/INS98[…]/DEL101-144/K146T/E147F/E148K/K150R/K151W/V153G/V154F/I156V/D157S/P158Q/G160D/N161D/T162I/N165Y/C169F/T171A/P173A/V174S/M175L/T179I/I181L/I182V/E189Q/S192D/D193E/Y194N/L195F/E196F/Y197L/L199V/A200G/F201L/S205C/V208I/L210I/M213T/F214C/V215I/T217L/E230D/E231L/R232A/I235R/K237N/K239I/S240R/A344S/R345F/K346C/S350C/L351F/T364M/R369K/S371E/F374V/A378F/V487E/V497T/D502E/I504V/K506R/K518R/K521Q/I530V/F533Y/V534A/S537G/D538A/S540L/L548I/S553N/K554M/A555S/I566L/D577E/M580R/A582V/T584S/K590Q/G591K/M592V/K596R/K598R/Q599E/M602R/D604Q/I609E/N610S/I611V/N613A/A614G): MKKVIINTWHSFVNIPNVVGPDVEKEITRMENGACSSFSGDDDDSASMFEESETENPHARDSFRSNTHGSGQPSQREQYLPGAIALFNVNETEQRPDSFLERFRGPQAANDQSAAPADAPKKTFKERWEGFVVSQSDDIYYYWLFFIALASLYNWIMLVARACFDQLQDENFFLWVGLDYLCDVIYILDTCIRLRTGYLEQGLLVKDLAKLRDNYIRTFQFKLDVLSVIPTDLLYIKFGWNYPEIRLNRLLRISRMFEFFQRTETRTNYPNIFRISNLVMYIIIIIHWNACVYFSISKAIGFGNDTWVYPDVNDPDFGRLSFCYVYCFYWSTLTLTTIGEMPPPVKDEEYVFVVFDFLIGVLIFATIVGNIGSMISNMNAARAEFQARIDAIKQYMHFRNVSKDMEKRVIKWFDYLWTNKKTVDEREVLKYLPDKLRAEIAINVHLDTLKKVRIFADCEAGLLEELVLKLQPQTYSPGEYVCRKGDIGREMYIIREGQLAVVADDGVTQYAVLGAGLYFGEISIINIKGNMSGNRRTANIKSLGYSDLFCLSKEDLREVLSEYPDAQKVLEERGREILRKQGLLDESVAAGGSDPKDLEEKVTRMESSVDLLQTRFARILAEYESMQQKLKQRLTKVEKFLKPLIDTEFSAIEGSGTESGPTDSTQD

[4] = test system: ROON-S2; conditions: mean ± SD, ref Tibbs et al. 1997, Tibbs et al. 1998; cited from earlier work

Hill coefficient h [1]: 1.210 ± 0.046
Hill coefficient h ([2]; −100 mV, composite fit ± SEM, cGMP: excluding data >3 mM): 1.120 ± 0.044
Hill coefficient h ([3]; one patch (Fig. 6 B2), −100 mV, Hill fit ± SE): 1.95 ± 0.22
Structure (SMILES): Nc1nc2c(ncn2[C@@H]2O[C@@H]3COP(=O)([O-])O[C@H]3[C@H]2O)c(=O)[nH]1.[Na+] [cGMP]
Desensitization [2]: Yes
agonist concentration above which desensitization occurs ([2]; biphasic dose–response curve): above 3 mM
Desensitization [3]: No
Hill coefficient h [4]: 1.89 ± 0.38 (10)
